Data: patent US20230278972A1, “SUBSTITUTED HALOALKYL SULFONANILIDE HERBICIDES” (FMC Corporation, priority 2020, published 2023)

Assays:
Type in all cases: in vivo
[1] = system: blackgrass (Alopecurus myosuroides); test: Test A postemergence, blackgrass; conditions: Postemergence, 0 to 100 scale (0 no effect, 100 complete control); for Blackgrass plant response rating: visual injury vs untreated controls after approx. 10 days
How it was run: (§1)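 Pots: loam soil/sand blend. Pre: directed soil spray at planting. Post: plants 2–10 cm, 1–2 leaf stage. Formulation: non-phytotoxic solvent + surfactant.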

[2] = system: barnyardgrass (Echinochloa crus-galli); test: Test A preemergence, barnyardgrass; conditions: Preemergence; for Barnyardgrass plant response rating: 125 g ai/ha, visual injury on 0 to 100 scale (0 no effect, 100 complete control), approximately 10 days; for Plant response rating, Barnyardgrass: 500 g ai/ha, 0 to 100 scale (0 no effect, 100 complete control)
How it was run: as §1

[3] = system: kochia (Bassia scoparia); test: Test A preemergence, kochia; conditions: Preemergence; for Kochia plant response rating: 125 g ai/ha, visual injury on 0 to 100 scale (0 no effect, 100 complete control), approximately 10 days; for Plant response rating, Kochia: 500 g ai/ha, 0 to 100 scale (0 no effect, 100 complete control)
How it was run: as §1

[4] = system: ragweed (common ragweed, Ambrosia artemisiifolia); test: Test A postemergence, ragweed; conditions: Postemergence, 0 to 100 scale (0 no effect, 100 complete control); for Ragweed plant response rating: visual injury vs untreated controls after approx. 10 days
How it was run: as §1

[5] = system: pigweed (Amaranthus retroflexus); test: Test A preemergence, pigweed; conditions: for Pigweed plant response rating: 125 g ai/ha, visual injury on 0 to 100 scale (0 no effect, 100 complete control), approximately 10 days; for Plant response rating, Pigweed: 500 g ai/ha, 0 to 100 scale (0 no effect, 100 complete control)
How it was run: (§2)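 Preemergence: pigweed seeds in loam soil–sand blend received a directed soil spray of test chemicals in a non-phytotoxic solvent with surfactant. Postemergence: barnyardgrass, wheat and galium in pots of the same soil, 2 to 10 cm tall at one- to two-leaf stage, sprayed with the same formulation.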

[6] = system: corn (Zea mays); test: Test A postemergence, corn; conditions: Postemergence, 0 to 100 scale (0 no effect, 100 complete control); for Corn plant response rating: visual injury vs untreated controls after approx. 10 days
How it was run: as §1

[7] = system: Foxtail, Giant (giant foxtail, Setaria faberi); test: Test A postemergence, Foxtail, Giant; conditions: Postemergence, 0 to 100 scale (0 no effect, 100 complete control); for Foxtail, Giant plant response rating: visual injury vs untreated controls after approx. 10 days
How it was run: as §1

[8] = system: barnyardgrass (Echinochloa crus-galli); test: Test A postemergence, barnyardgrass; conditions: Postemergence, 0 to 100 scale (0 no effect, 100 complete control); for Barnyardgrass plant response rating: visual injury vs untreated controls after approx. 10 days
How it was run: as §2

[9] = system: Foxtail, Giant (giant foxtail, Setaria faberi); test: Test A preemergence, Foxtail, Giant; conditions: Preemergence; for Foxtail, Giant plant response rating: 125 g ai/ha, visual injury on 0 to 100 scale (0 no effect, 100 complete control), approximately 10 days; for Plant response rating, Foxtail, Giant: 500 g ai/ha, 0 to 100 scale (0 no effect, 100 complete control)
How it was run: as §1

[10] = system: pigweed (Amaranthus retroflexus); test: Test A postemergence, pigweed; conditions: Postemergence, 0 to 100 scale (0 no effect, 100 complete control); for Pigweed plant response rating: visual injury vs untreated controls after approx. 10 days
How it was run: as §1

[11] = system: Ryegrass, Italian (Italian ryegrass, Lolium multiflorum); test: Test A preemergence, Ryegrass, Italian; conditions: Preemergence; for Ryegrass, Italian plant response rating: 125 g ai/ha, visual injury on 0 to 100 scale (0 no effect, 100 complete control), approximately 10 days; for Plant response rating, Ryegrass, Italian: 500 g ai/ha, 0 to 100 scale (0 no effect, 100 complete control)
How it was run: as §1

[12] = system: galium (catchweed bedstraw, Galium aparine); test: Test A postemergence, galium; conditions: Postemergence, 0 to 100 scale (0 no effect, 100 complete control); for Galium plant response rating: visual injury vs untreated controls after approx. 10 days
How it was run: as §2

[13] = system: ragweed (common ragweed, Ambrosia artemisiifolia); test: Test A preemergence, ragweed; conditions: Preemergence; for Ragweed plant response rating: 125 g ai/ha, visual injury on 0 to 100 scale (0 no effect, 100 complete control), approximately 10 days; for Plant response rating, Ragweed: 500 g ai/ha, 0 to 100 scale (0 no effect, 100 complete control)
How it was run: as §1

[14] = system: kochia (Bassia scoparia); test: Test A postemergence, kochia; conditions: Postemergence, 0 to 100 scale (0 no effect, 100 complete control); for Kochia plant response rating: visual injury vs untreated controls after approx. 10 days
How it was run: as §1

[15] = system: Ryegrass, Italian (Italian ryegrass, Lolium multiflorum); test: Test A postemergence, Ryegrass, Italian; conditions: Postemergence, 0 to 100 scale (0 no effect, 100 complete control); for Ryegrass, Italian plant response rating: visual injury vs untreated controls after approx. 10 days
How it was run: as §1

[16] = system: wheat (Triticum aestivum); test: Test A postemergence, wheat; conditions: Postemergence, 0 to 100 scale (0 no effect, 100 complete control); for Wheat plant response rating: visual injury vs untreated controls after approx. 10 days
How it was run: as §2

[17] = 125 g ai/ha, visual injury approx. 10 days
[18] = 500 g ai/ha, visual injury, approx. 10 days

SMILES	Plant response rating, Blackgrass [1, 17]	Barnyardgrass plant response rating [2]	Plant response rating, Barnyardgrass [2]	Kochia plant response rating [3]	Plant response rating, Kochia [3]	Plant response rating, Ragweed [4, 17]	Pigweed plant response rating [5]	Plant response rating, Pigweed [5]	Plant response rating, Corn [6, 17]	Plant response rating, Foxtail, Giant [7, 17]	Plant response rating, Barnyardgrass [8, 17]	Foxtail, Giant plant response rating [9]	Plant response rating, Foxtail, Giant [9]	Plant response rating, Pigweed [10, 17]	Ryegrass, Italian plant response rating [11]	Plant response rating, Ryegrass, Italian [11]	Plant response rating, Galium [12, 17]	Ragweed plant response rating [13]	Plant response rating, Ragweed [13]	Plant response rating, Kochia [14, 17]	further results
COc1cc(C)c(NS(=O)(=O)C(F)(F)F)cc1-c1ccnn(C)c1=O [Compound 81]	0	90	90	0	80	20	30	100	0	90	70	100	100	20	30	50	80	30	40	40	Blackgrass plant response rating ([1]; 500 g ai/ha): 70; Ragweed plant response rating ([4]; 500 g ai/ha): 60; Corn plant response rating ([6]; 500 g ai/ha): 20; Foxtail, Giant plant response rating ([7]; 500 g ai/ha): 90; Barnyardgrass plant response rating ([8]; 500 g ai/ha): 80; Pigweed plant response rating ([10]; 500 g ai/ha): 60; Galium plant response rating ([12]; 500 g ai/ha): 90; Kochia plant response rating ([14]; 500 g ai/ha): 50; Plant response rating, Ryegrass, Italian [15, 17]: 0; Ryegrass, Italian plant response rating ([15]; 500 g ai/ha): 60; Plant response rating, Wheat [16, 17]: 40; Wheat plant response rating ([16]; 500 g ai/ha): 60
Cc1cc(C)c(N(S(=O)(=O)C(F)(F)F)S(=O)(=O)C(F)(F)F)cc1-c1cn(C)c(=O)n(C)c1=O [Compound 42]	40	90	100	40	70	40	40	80	0	90	70	100	100	40	100	100	50	30	80	20	Plant response rating, Blackgrass [1, 18]: 90; Plant response rating, Ragweed [4, 18]: 80; Plant response rating, Corn [6, 18]: 60; Plant response rating, Foxtail, Giant [7, 18]: 90; Plant response rating, Barnyardgrass [8, 18]: 80; Plant response rating, Pigweed [10, 18]: 100; Plant response rating, Galium [12, 18]: 60; Plant response rating, Kochia [14, 18]: 30; Plant response rating, Ryegrass, Italian [15, 17]: 70; Plant response rating, Ryegrass, Italian [15, 18]: 80; Plant response rating, Wheat [16, 17]: 70; Plant response rating, Wheat [16, 18]: 70
Cc1cc(C)c(C2=NOC3(C2)CC(C)(C)CC(C)(C)C3)cc1NS(=O)(=O)C(F)(F)F [Compound 122]	0	0	70	70	30	0	0	30	0	0	10	50	100	20	30	80	60	0	0	0	Blackgrass plant response rating ([1]; 500 g ai/ha): 10; Ragweed plant response rating ([4]; 500 g ai/ha): 0; Corn plant response rating ([6]; 500 g ai/ha): 0; Foxtail, Giant plant response rating ([7]; 500 g ai/ha): 20; Barnyardgrass plant response rating ([8]; 500 g ai/ha): 70; Pigweed plant response rating ([10]; 500 g ai/ha): 50; Galium plant response rating ([12]; 500 g ai/ha): 90; Kochia plant response rating ([14]; 500 g ai/ha): 10; Plant response rating, Ryegrass, Italian [15, 17]: 0; Ryegrass, Italian plant response rating ([15]; 500 g ai/ha): 0; Plant response rating, Wheat [16, 17]: 0; Wheat plant response rating ([16]; 500 g ai/ha): 0
